Test results published in the supplement of paper PMC10949913.

Tests used:
Conditions in all cases: 48 h
CU-ACC2 [1] = assay: AC50 viability; higher = less potent
Method in brief: (§1)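 Three adrenocortical carcinoma cell lines were plated in 1,536-well plates at 500–1,000 cells/well in 5 µL medium, and 23 nL of each library compound was added at 11 concentrations. After 48 h, CellTiter-Glo was applied for 15 minutes at room temperature before luminescence was read. Each plate's signals were normalised to vehicle and empty-well controls. AC50 and area under the curve were taken from fitted concentration-response curves, with only inhibitory or non-responding curve classes retained.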

NCI-H295R [2] = assay: AC50 viability; higher = less potent
Method in brief: as §1

CU-ACC1 = assay: area under concentration-response curve (viability) (AUC (a.u.)); higher = less active
Method in brief: as §1

CU-ACC2 [3] = assay: as above
Method in brief: as §1

NCI-H295R [4] = assay: as above
Method in brief: as §1

Compound | AC50 viability (CU-ACC2 [1]) [µM] | AC50 viability (NCI-H295R [2]) [µM] | area under concentration-response curve (CU-ACC1) | area under concentration-response curve (CU-ACC2 [3]) | area under concentration-response curve (NCI-H295R [4])
CC[C@]12\C=C/CN3CC[C@]4([C@@H](N(C)C5=C4C=C(C(=C5)OC)[C@]6(CC7C[C@H](CN(C7)CC8=C6[NH]C9=C8C=CC=C9)C(C)(F)F)C(=O)OC)[C@](O)([C@@H]1OC(C)=O)C(=O)OC)[C@H]23 (some centres undefined) | 5.9 | 1.48 | 468 | 533 | 394
NC(=O)Nc1sc(-c2ccc(F)cc2)cc1C(N)=O | 8.33 | 5.9 | 511 | 559 | 485
Cn1ncc(NC(=O)c2nc(-c3c(F)cccc3F)sc2N)c1N1CC[C@@H](N)[C@H](F)CC1 | 18.6 | – | 525 | 500 | 516
CC(C)(C)c1cc(NC(=O)Nc2ccc(-c3cn4c(n3)sc3cc(OCCN5CCOCC5)ccc34)cc2)no1 | 3.72 | – | 489 | 539 | 511
COc1ccc(-c2c(-c3ccc(O)cc3O)n[nH]c2C)cc1 | 0.105 | 0.00296 | – | 224 | 71.5
N[S+](=O)([O-])c1ccc(Cc2c(-c3cccc(-c4ccccc4)c3)nn(-c3nc(C(=O)O)cs3)c2CC2CC2)cc1 | 5.9 | – | 373 | 388 | 405
Cc1ccc(Nc2ncc3c(n2)N(C)C(=O)N(c2cc(NC(=O)c4cccc(C(F)(F)F)c4)ccc2C)C3)cn1 | 5.25 | – | 501 | 504 | 532
CC(/C=C/C(=O)NO)=C\[C@@H](C)C(=O)c1ccc(N(C)C)cc1 | 1.05 | – | 417 | 463 | 487
COc1cc(OC)c(NC(=O)Nc2cc(C)on2)cc1Cl | 23.5 | – | 408 | 484 | 432
CC(C)(C)C(=O)Oc1ccc([S+](=O)([O-])Nc2ccccc2C(=O)NCC(=O)O)cc1 | 0.105 | – | 318 | 313 | 348
Nc1ccc(C(=O)Nc2cccc(-c3nc(N4CCOCC4)c4oc5ncccc5c4n3)c2)cn1 | 1.48 | – | 434 | 414 | 396
CCC[C@H](Nc1nc(-c2ccc(NC(=O)NCC)c(OC)c2)ncc1C)c1cccnc1 | 0.372 | 1.32 | – | 338 | 333
COC1=CC(=C2C(=O)N(COC/3=C/C(=O)N4\C=C/C=C(OCCN5CCCCC5)\C4=N3)[S+]([O-])(=O)C2=C1)C(C)C | 20.9 | 37.2 | – | 584 | 541
CCC1=C2CN3C(=O)\C4=C(/C=C3/C2=NC5=CC=C(O)C=C15)[C@@](O)(CC)C(=O)OC4 | 0.468 | – | 401 | 447 | 524
CCOc1cc(N2CCC(O)CC2)ccc1Nc1ncc2c(n1)N(C)c1ccccc1C(=O)N2C | 20.9 | – | 450 | 525 | 479
C=CC(=O)N1CCC[C@H](n2c(=O)n(-c3ccc(Oc4ccccc4)cc3)c3c(N)ncnc32)C1 | 20.9 | – | 352 | 410 | 410
C/C(=N\NC(=S)N1CCC1)c1ccccn1 | 0.417 | – | 292 | 453 | 396
O=C(O)c1ccc2cc(-c3ccc(O)c(C45CC6CC(CC(C6)C4)C5)c3)ccc2c1 | 5.25 | 3.72 | – | 452 | 474
CNC(=O)c1nn(C)c2c1C(C)(C)Cc1cnc(Nc3ccc(N4CCN(C)CC4)cc3)nc1-2 | 7.42 | 18.6 | – | 483 | 473
COC(=O)Nc1nc2cc(Sc3ccccc3)ccc2[nH]1 | 5.25 | – | 368 | 393 | 431
CC1=N[NH]C=C1C2=CC\3=C(S2)C(=O)NC(=N3)\[C@@H]4CC5CCN4CC5 | 10.5 | 23.5 | – | 476 | 529

Compound | AC50 viability (CU-ACC2 [1]) [µM] | AC50 viability (NCI-H295R [2]) [µM] | area under concentration-response curve (CU-ACC1) | area under concentration-response curve (CU-ACC2 [3]) | area under concentration-response curve (NCI-H295R [4])
COc1ccc(-c2cc3nccn3c(Nc3ncccc3C(N)=O)n2)cc1OC | 6.61 | – | 436 | 415 | 427
C=C1C[C@@H]2CC[C@@]34C[C@H]5O[C@H]6[C@@H](O3)[C@H]3O[C@H](CC[C@@H]3O[C@H]6[C@H]5O4)CC(=O)C[C@@H]3[C@@H](OC)[C@@H](C[C@H](O)CN)O[C@H]3C[C@H]3O[C@@H](CC[C@@H]1O2)C[C@@H](C)C3=C | 3.4 | 0.00959 | – | 461 | 436
O=C(NCCCNc1nc(Nc2cccc(CN3CCOCC3)c2)ncc1C1CC1)C1CCC1 | 33.2 | – | – | 452 | 220
CCn1cc(-c2ccnc3[nH]c(-c4cccc(CN(C)C)c4)cc23)c(-c2ccc(NC(=O)N(C)C)cc2)n1 | 18.6 | 18.6 | – | 578 | 514
c1ccc(-c2cc(CCC3CCNCC3)c3ccccc3n2)cc1 | 23.5 | 20.9 | – | 561 | 469
CN(C)c1ccc2cc(C(=O)N[C@@H](CCCNC(=N)CCl)C(=O)NCc3ccccc3)ccc2c1 | 0.118 | 11.8 | – | 276 | 247
Nc1nc(Nc2ccc3c(c2)CC[C@@H](N2CCCC2)CC3)nn1-c1cc2c(nn1)-c1ccccc1CCC2 | 23.5 | 23.5 | – | 534 | 441
O=C(Nc1cccc(Nc2ncc(Br)c(NCCc3cnc[nH]3)n2)c1)N1CCCC1 | 16.6 | 23.5 | – | 418 | 397
Nc1ncnc2c1c(-c1cccc(OCc3ccccc3)c1)cn2[C@H]1C[C@H](CN2CCCC2)C1 | 14.8 | 18.6 | – | 444 | 358
CN(C)C1=CC=C(C=C1)C(C2=CC=C(C=C2)N(C)C)=C/3\C=C/C(/C=C3)=[N+](C)C | 4.17 | 4.17 | – | – | –
C[C@]1(O)CC(C1)C2=NC(=C3[N]2C=CN=C3N)C4=CC5=C(C=C4)C=CC(=N5)C6=CC=CC=C6 (centres undefined) | 18.6 | – | – | 411 | 373
CC(C)COCC(CN(Cc1ccccc1)c1ccccc1)N1CCCC1 (centres undefined) | 26.3 | 23.5 | – | 583 | 536
C[C@@H](Oc1cc(-c2cnn(C3CCNCC3)c2)cnc1N)c1c(Cl)ccc(F)c1Cl | 16.6 | 3.72 | – | 407 | 353
N#Cc1ccnc(Nc2cc(C3CCN(C4COC4)CC3)cc(N3CCC(F)(F)C3)n2)c1 | 1.66 | – | 458 | 467 | 471
CC(C)(N)c1ccc(-c2nc3ccccc3nc2-c2ccccc2)cc1 | 0.372 | – | 336 | 297 | 354
CC(C)N(CCC(=O)c1ccc2ccccc2c1)Cc1ccccc1 | 20.9 | – | 557 | 609 | 603
CC1(C)CNc2cc(NC(=O)c3cccnc3NCc3ccncc3)ccc21 | 0.263 | – | 379 | 317 | 373
CCN(CC)CCOc1ccc(/C(=C(\Cl)c2ccccc2)c2ccccc2)cc1 | 10.5 | – | – | 203 | 131
Cc1cc(C(=O)Nc2cc(Nc3ccc4c(/C=C/c5ccccn5)[nH]nc4c3)ccc2F)n(C)n1 | 23.5 | 23.5 | – | 572 | 525
Cc1cc2c(cc1CC(=O)c1sccc1[S+](=O)([O-])Nc1onc(C)c1Cl)OCO2 | 0.105 | 0.00417 | – | 242 | 127
CC(C)(C)OC(=O)CN(Cc1ccc(Cl)cc1)Cc1ccc([N+](=O)[O-])s1 | 37.2 | – | 410 | 479 | 405

Compound | AC50 viability (CU-ACC2 [1]) [µM] | AC50 viability (NCI-H295R [2]) [µM] | area under concentration-response curve (CU-ACC1) | area under concentration-response curve (CU-ACC2 [3]) | area under concentration-response curve (NCI-H295R [4])
c1cc(CN2CCCNCCNCCCNCC2)ccc1CN1CCCNCCNCCCNCC1 | 0.0934 | – | 336 | 337 | 294
O=C(NCc1ccccc1)c1csc(Nc2ccncn2)n1 | 18.6 | 23.5 | – | 501 | 482
COc1cc2nc(-c3cc(F)ccc3O)nc(N[C@@H]3CNC[C@H]3C(C)(C)O)c2cc1OC | 4.17 | 3.72 | – | 430 | 412
CC(C)c1cccc(C(C)C)c1O | 14.8 | – | 362 | 400 | 415
CN(C)C(=O)c1cc2cnc(Nc3ccc(N4CCNCC4)cn3)nc2n1C1CCCC1 | 33.2 | – | 434 | 439 | 474
COc1cc2c(Nc3ccc(NC(=O)c4ccccc4)cc3)ncnc2cc1OCCCN1CCOCC1 | 20.9 | 18.6 | – | 566 | 505
CN(C1=CC=CC=C1)C(=O)C/2=C(O)/C3=C(C=CC=C3)N(C)C2=O | 37.2 | – | 344 | 399 | 317
FC(F)(F)c1ccc(Nc2nc(-c3c(C(F)(F)F)nc4ccccn34)cs2)cc1 | 20.9 | 5.25 | – | 529 | 413
Cc1cc(OCc2nnc(SC3CCCC3)n2-c2cccnc2)ccc1-c1ccc([S+](C)(=O)[O-])cc1 | 2.35 | – | 271 | 324 | 362
CN[C@@H](C)C(=O)N[C@H](C(=O)N1CCC[C@H]1C(=O)Nc1snnc1-c1ccccc1)C1CCCCC1 | 1.66 | – | 413 | 405 | 401
CC(C)OC(=O)[C@H](C)N[P@](=O)(OC[C@H]1O[C@@H](N2\C=C/C(=O)NC2=O)[C@](C)(F)[C@@H]1O)OC3=CC=CC=C3 | 5.9 | – | 388 | 414 | 386
O=C(Nc1ccc2[nH]nc(-c3ccncc3)c2c1)[C@@H]1CCN(CC(=O)N2CCN(c3ccc(-c4ncccn4)cc3)CC2)C1 | 11.8 | – | 444 | 476 | 482
CC(C)Oc1cc(Nc2nc(N[C@@H](C)c3ccc(F)cn3)ncc2Cl)n[nH]1 | 1.32 | – | 325 | 394 | 353
C[N]1C=NC=C1[C@@](N)(C2=CC=C(Cl)C=C2)C3=CC=C4N(C)C(=O)\C=C(\C5=CC=CC(=C5)Cl)C4=C3 | 0.372 | 0.00105 | – | 94.9 | 88.8
Cn1cc(/C=C2\C(=O)Nc3cccnc32)c2ccccc21 | 0.105 | – | 349 | 320 | 373
O=C(Nc1cccc(Cl)c1)Nc1ncc(CCNc2ncnc3ccsc23)s1 | 9.34 | 33.2 | – | 481 | 342
O=C(NCc1ccc([S+](=O)([O-])c2cccc(C(F)(F)F)c2)cc1)c1cnc2[nH]ncc2c1 | 0.0186 | – | 347 | 362 | 407
CCOc1cc2ncc(C#N)c(Nc3ccc(OCc4ccccn4)c(Cl)c3)c2cc1NC(=O)/C=C/CN(C)C | 16.6 | – | 562 | 572 | 543
NC(=O)c1ccc2[nH]ccc2c1 | 0.59 | – | 345 | 360 | 395
CC1(C)SCCN([S+](=O)([O-])c2ccc(OCC#CCO)cc2)[C@H]1C(=O)NO | 2.95 | – | 446 | 437 | 421
CCN(CC)C(=S)SSC(=S)N(CC)CC | 14.8 | – | 366 | 465 | 472
